{
  "source": "patent US7288258B2",
  "about": "“Polyepitopic protein fragments of the E6 and E7 proteins of HPV, their production and their use particularly in vaccination” (Peptide Immune Ligands, priority 1999, dated 2007)",
  "assay_in_all_cases": "association of peptide with HLA molecules and stability of the complex",
  "details_in_all_cases": "stable complex: peptide remains bound for at least about 3 hours at 37° C.",
  "key": {"[1]": {"tested_on": "HLA molecules of the A2 type", "type": "binding, human", "description": "(§1) The different epitopes of the polyepitopic region of the predetermined protein, and delimiting the epitopic protein fragments, are preferably selected from the peptides; • binding to a predetermined molecule of MCH, particularly to a molecule of the predetermined HLA type, and this from concentrations of about 10^−6 M to about 10^−10 M in peptide for concentrations of about 10^−7 M of HLA molecules, particularly under the conditions described hereafter, • and forming a stable complex with said MCH molecule, namely particularly a complex in which said peptide remains bound to said molecule for at least about 3 hours at 37° C.\n(§2) By way of illustration, the above-mentioned epitopes of the invention are selected from among the peptides adapted: • on the one hand of associating with the molecules of MCH, particularly by using the following method: • incubation (particularly for about 2 hours at 25° C., then about 15 hours at 4° C.) of the peptide in the presence of MCH molecules, from the lysis of human or animal cells, or purified particularly by affinity chromatography from human or animal cell lines, • trapping complexes formed during the preceding step on a solid support covered with a first antibody, particularly monoclonal, recognizing specifically the CMH molecules in their configuration dependent on their connection to said peptide, • addition to the preceding solid support of a second marked antibody, particularly by coupling to a radioactive, enzymatic or fluorescent marker, said marked antibody recognizing specifically either the long chains of MCH in their configuration dependent on their connection to the peptide, or the short chain of MCH or the β2-microglobulin binding specifically to the different long chains of the MCH in their above-mentioned configuration, • detection, after rinsing of the solid support, of the possible presence of the second marked antibody remaining fixed on the solid support, signifying an association effect between the molecules of MCH and the peptide studied, • and, on the other hand, forming a complex with said MCH molecules, whose stability can be evaluated by the use of a method of following according to time the connection established between the peptide and the MCH molecules, this method being preferably carried out according to a protocol identical to the preceding method, but in which the incubation step of the peptide in the presence of MCH molecules on the solid support covered with said first antibody, is preceded by a preliminary step of eliminating the free peptide adapted that may be present in the reaction medium, particularly by washing the solid support, said incubation step being carried out (preferably at a temperature of 37° C.) for variable times of 1 hours, 3 hours, 5 hours, 24 hours and 48 hours.\n(§3) As mentioned above, the epitopes of the invention should be recognized by the T cells in association with the MCH molecules and associate with these latter, particularly in the framework of the practice of the recognition test described above. This association can be weak (detectable at concentrations of peptide analogs of the order of 10^−4 to 10^−5 M), intermediate (detectable at concentrations of peptide analogs of the order of 10^−6 to 10^−7 M), or strong (detectable at concentrations of peptide analogs of the order of 10^−8 to 10^−9 M). The peptides associated with the MCH molecules in the scope of the present invention are preferably adapted to bond during at least about 3 hours, to said MCH molecules."}, "[2]": {"tested_on": "HLA molecules of the B27 type", "type": "binding, human", "description": "as §1, §2, §3"}, "[3]": {"tested_on": "HLA molecules of the A24 type", "type": "binding, human", "description": "as §1, §2, §3"}, "[4]": {"target": "T1, HLA molecules of the A3 type (Homo sapiens, UniProt P04439)", "T1 construct": "endogenous in cells", "T1 sequence (P61769 21-119)": "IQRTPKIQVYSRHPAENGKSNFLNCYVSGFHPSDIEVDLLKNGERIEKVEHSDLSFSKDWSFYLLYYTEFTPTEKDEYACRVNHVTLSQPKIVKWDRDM", "T1 sequence (P04439 25-365)": "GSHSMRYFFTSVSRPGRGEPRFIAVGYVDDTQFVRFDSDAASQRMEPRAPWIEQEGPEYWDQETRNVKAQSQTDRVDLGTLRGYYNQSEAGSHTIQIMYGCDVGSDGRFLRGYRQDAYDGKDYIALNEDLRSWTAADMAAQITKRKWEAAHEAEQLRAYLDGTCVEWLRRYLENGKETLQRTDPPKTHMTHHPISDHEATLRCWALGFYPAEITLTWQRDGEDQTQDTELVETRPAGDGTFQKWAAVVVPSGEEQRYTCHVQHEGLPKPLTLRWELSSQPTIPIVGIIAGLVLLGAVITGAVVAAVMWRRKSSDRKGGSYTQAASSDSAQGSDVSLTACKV", "type": "binding", "description": "as §1, §2, §3"}, "[5]": {"tested_on": "HLA molecules of the A11 type", "type": "binding, human", "description": "as §1, §2, §3"}, "[6]": {"target": "T2, HLA molecules of the B7 type (Homo sapiens, UniProt P01889)", "T2 construct": "endogenous in cells", "T2 sequence (P01889 25-362)": "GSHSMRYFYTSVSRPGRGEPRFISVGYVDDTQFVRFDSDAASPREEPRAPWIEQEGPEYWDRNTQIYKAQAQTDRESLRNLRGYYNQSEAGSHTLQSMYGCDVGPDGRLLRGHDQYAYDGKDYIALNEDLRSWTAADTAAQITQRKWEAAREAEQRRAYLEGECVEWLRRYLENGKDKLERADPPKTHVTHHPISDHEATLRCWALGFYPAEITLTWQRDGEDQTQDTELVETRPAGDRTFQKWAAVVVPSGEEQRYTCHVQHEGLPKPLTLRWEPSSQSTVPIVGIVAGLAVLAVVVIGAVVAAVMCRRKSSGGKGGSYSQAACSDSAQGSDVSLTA", "T2 sequence (P61769 21-119, further chain)": "as the sequence (P61769 21-119) above", "type": "binding", "description": "as §1, §2, §3"}, "[7]": {"tested_on": "HLA molecules of the B51 type", "type": "binding, human", "description": "as §1, §2, §3"}, "[8]": {"tested_on": "HLA molecules of the B35 type", "type": "binding, human", "description": "as §1, §2, §3"}, "[9]": {"tested_on": "HLA molecules of the A29 type", "type": "binding, human", "description": "as §1, §2, §3"}, "[10]": {"tested_on": "HLA molecules of the B44 type", "type": "binding, human", "description": "as §1, §2, §3"}, "[11]": {"tested_on": "HLA molecules of the B8 type", "type": "binding, human", "description": "as §1, §2, §3"}},
  "data": [
    {"sequence": "KLPQLCTEL", "values": [
      {"measurement": "binding stably to HLA molecules of the A2 type", "setting": "[1]", "value": "binding stably"}
    ]},
    {"sequence": "IRVEGNLRVEY (listed as Homo sapiens)", "values": [
      {"measurement": "binding stably to HLA molecules of the B27 type", "setting": "[2]", "value": "binding stably"}
    ]},
    {"sequence": "RFHNIRGRW (Human Papillomavirus)", "values": [
      {"measurement": "binding stably to HLA molecules of the A24 type", "setting": "[3]", "value": "binding stably"}
    ]},
    {"sequence": "TLEQQYNK (Human Papillomavirus)", "values": [
      {"measurement": "binding stably to HLA molecules of the A3 type", "setting": "[4]", "value": "binding stably"},
      {"measurement": "binding stably to HLA molecules of the A11 type", "setting": "[5]", "value": "binding stably"}
    ]},
    {"sequence": "QRFHNIRGRW (Human Papillomavirus)", "values": [
      {"measurement": "binding stably to HLA molecules of the B27 type", "setting": "[2]", "value": "binding stably"}
    ]},
    {"sequence": "IILECVYCK (Human Papillomavirus)", "values": [
      {"measurement": "binding stably to HLA molecules of the A11 type", "setting": "[5]", "value": "binding stably"}
    ]},
    {"sequence": "FRHSVVVPY (listed as Homo sapiens)", "values": [
      {"measurement": "binding stably to HLA molecules of the B27 type", "setting": "[2]", "value": "binding stably"}
    ]},
    {"sequence": "KPLCDLLI (Human Papillomavirus)", "values": [
      {"measurement": "binding stably to HLA molecules of the B7 type", "setting": "[6]", "value": "binding stably"},
      {"measurement": "binding stably to HLA molecules of the B51 type", "setting": "[7]", "value": "binding stably"},
      {"measurement": "binding stably to HLA molecules of the B35 type", "setting": "[8]", "value": "binding stably"}
    ]},
    {"sequence": "RVEGNLRVEY (listed as Homo sapiens)", "values": [
      {"measurement": "binding stably to HLA molecules of the A2 type", "setting": "[1]", "value": "binding stably"}
    ]},
    {"sequence": "FAFRDLCIV (Human Papillomavirus)", "values": [
      {"measurement": "binding stably to HLA molecules of the B7 type", "setting": "[6]", "value": "binding stably"},
      {"measurement": "binding stably to HLA molecules of the A2 type", "setting": "[1]", "value": "binding stably"},
      {"measurement": "binding stably to HLA molecules of the B51 type", "setting": "[7]", "value": "binding stably"},
      {"measurement": "binding stably to HLA molecules of the B35 type", "setting": "[8]", "value": "binding stably"}
    ]},
    {"sequence": "LECVYCKQQL (Human Papillomavirus)", "values": [
      {"measurement": "binding stably to HLA molecules of the A29 type", "setting": "[9]", "value": "binding stably"},
      {"measurement": "binding stably to HLA molecules of the B44 type", "setting": "[10]", "value": "binding stably"}
    ]},
    {"sequence": "GLAPPQHLIRV", "values": [
      {"measurement": "binding stably to HLA molecules of the A2 type", "setting": "[1]", "value": "binding stably"}
    ]},
    {"sequence": "IYKQSQHM (listed as Homo sapiens)", "values": [
      {"measurement": "binding stably to HLA molecules of the A24 type", "setting": "[3]", "value": "binding stably"}
    ]},
    {"sequence": "KKQRFHNIR (Human Papillomavirus)", "values": [
      {"measurement": "binding stably to HLA molecules of the B27 type", "setting": "[2]", "value": "binding stably"}
    ]},
    {"sequence": "EYLDDRNTF", "values": [
      {"measurement": "binding stably to HLA molecules of the A24 type", "setting": "[3]", "value": "binding stably"}
    ]},
    {"sequence": "EPDRAHYNIV (Human Papillomavirus)", "values": [
      {"measurement": "binding stably to HLA molecules of the B7 type", "setting": "[6]", "value": "binding stably"},
      {"measurement": "binding stably to HLA molecules of the B35 type", "setting": "[8]", "value": "binding stably"}
    ]},
    {"sequence": "SEYRHYCY (Human Papillomavirus)", "values": [
      {"measurement": "binding stably to HLA molecules of the A29 type", "setting": "[9]", "value": "binding stably"},
      {"measurement": "binding stably to HLA molecules of the B44 type", "setting": "[10]", "value": "binding stably"}
    ]},
    {"sequence": "NYMCNSSCM (listed as Homo sapiens)", "values": [
      {"measurement": "binding stably to HLA molecules of the A24 type", "setting": "[3]", "value": "binding stably"}
    ]},
    {"sequence": "VEYLDDRNTF (listed as Homo sapiens)", "values": [
      {"measurement": "binding stably to HLA molecules of the B44 type", "setting": "[10]", "value": "binding stably"}
    ]},
    {"sequence": "LLMGTLGIV", "values": [
      {"measurement": "binding stably to HLA molecules of the A2 type", "setting": "[1]", "value": "binding stably"}
    ]},
    {"sequence": "RREVYDFAFR (Human Papillomavirus)", "values": [
      {"measurement": "binding stably to HLA molecules of the B27 type", "setting": "[2]", "value": "binding stably"}
    ]},
    {"sequence": "GDTPTLHEY (Human Papillomavirus)", "values": [
      {"measurement": "binding stably to HLA molecules of the B44 type", "setting": "[10]", "value": "binding stably"}
    ]},
    {"sequence": "LRVEYLDDR (listed as Homo sapiens)", "values": [
      {"measurement": "binding stably to HLA molecules of the B27 type", "setting": "[2]", "value": "binding stably"}
    ]},
    {"sequence": "SDCTTIHYNY (listed as Homo sapiens)", "values": [
      {"measurement": "binding stably to HLA molecules of the B44 type", "setting": "[10]", "value": "binding stably"}
    ]},
    {"sequence": "IVCPICSQK", "values": [
      {"measurement": "binding stably to HLA molecules of the A3 type", "setting": "[4]", "value": "binding stably"},
      {"measurement": "binding stably to HLA molecules of the A11 type", "setting": "[5]", "value": "binding stably"}
    ]},
    {"sequence": "VRVCACPGR (listed as Homo sapiens)", "values": [
      {"measurement": "binding stably to HLA molecules of the B27 type", "setting": "[2]", "value": "binding stably"}
    ]},
    {"sequence": "FRDLCIVYR (Human Papillomavirus)", "values": [
      {"measurement": "binding stably to HLA molecules of the A3 type", "setting": "[4]", "value": "binding stably"},
      {"measurement": "binding stably to HLA molecules of the A11 type", "setting": "[5]", "value": "binding stably"}
    ]},
    {"sequence": "GSYGFRLGFL (listed as Homo sapiens)", "values": [
      {"measurement": "binding stably to HLA molecules of the B35 type", "setting": "[8]", "value": "binding stably"}
    ]},
    {"sequence": "NTFRHSVVV", "values": [
      {"measurement": "binding stably to HLA molecules of the B8 type", "setting": "[11]", "value": "binding stably"}
    ]},
    {"sequence": "GRNSFEVR (listed as Homo sapiens)", "values": [
      {"measurement": "binding stably to HLA molecules of the B27 type", "setting": "[2]", "value": "binding stably"}
    ]},
    {"sequence": "LEDSSGNLL (listed as Homo sapiens)", "values": [
      {"measurement": "binding stably to HLA molecules of the B44 type", "setting": "[10]", "value": "binding stably"}
    ]},
    {"sequence": "LLGRNSFEV", "values": [
      {"measurement": "binding stably to HLA molecules of the A2 type", "setting": "[1]", "value": "binding stably"}
    ]},
    {"sequence": "TRVRAMAIYK (listed as Homo sapiens)", "values": [
      {"measurement": "binding stably to HLA molecules of the B27 type", "setting": "[2]", "value": "binding stably"}
    ]}
  ]
}
